Assays:
Assay type in all cases: cell-based
[1] = molecular target: proteins of U3A human fibrosarcoma cells (4462 proteins detected) (Homo sapiens, UniProt Q9NNW5); settings: protein WDR6, U3A cells
[2] = molecular target: proteins of U3A human fibrosarcoma cells (4462 proteins detected) (Homo sapiens, UniProt O15066); settings: protein KIF3B; U3A cells
[3] = molecular target: proteins of U3A human fibrosarcoma cells (4462 proteins detected) (Homo sapiens, UniProt O95453); settings: protein PARN; U3A cells
[4] = molecular target: proteins of U3A human fibrosarcoma cells (4462 proteins detected) (Homo sapiens, UniProt Q9UHA3); settings: protein RSL24D1; U3A cells
[5] = molecular target: proteins of U3A human fibrosarcoma cells (4462 proteins detected) (Homo sapiens, UniProt O76021); settings: protein RSL1D1; soluble abundance after heat, U3A cells
[6] = molecular target: proteins of U3A human fibrosarcoma cells (4462 proteins detected) (Homo sapiens, UniProt P50281); settings: protein MMP14; U3A cells
[7] = molecular target: proteins of U3A human fibrosarcoma cells (4462 proteins detected) (Homo sapiens, UniProt Q9H0A8); settings: protein COMMD4; U3A cells
[8] = molecular target: proteins of U3A human fibrosarcoma cells (4462 proteins detected) (Homo sapiens, UniProt Q96A26); settings: protein FAM162A; U3A, 10 μM, 2 h
[9] = molecular target: proteins of U3A human fibrosarcoma cells (4462 proteins detected) (Homo sapiens, UniProt O00330); settings: protein PDHX; U3A cells
[10] = molecular target: proteins of U3A human fibrosarcoma cells (4462 proteins detected) (Homo sapiens, UniProt Q9Y2H0); settings: protein DLGAP4, U3A cells
[11] = molecular target: proteins of U3A human fibrosarcoma cells (4462 proteins detected) (Homo sapiens, UniProt P09874); settings: protein PARP1; U3A cells
[12] = molecular target: proteins of U3A human fibrosarcoma cells (4462 proteins detected) (Homo sapiens, UniProt O94880); settings: protein PHF14; U3A, 10 μM, 2 h
[13] = molecular target: proteins of U3A human fibrosarcoma cells (4462 proteins detected) (Homo sapiens, UniProt Q7Z5L2); settings: protein R3HCC1L; U3A, 10 μM, 2 h
[14] = molecular target: proteins of U3A human fibrosarcoma cells (4462 proteins detected) (Homo sapiens, UniProt Q86V21); settings: protein AACS, U3A cells
[15] = molecular target: proteins of U3A human fibrosarcoma cells (4462 proteins detected) (Homo sapiens, UniProt Q9NWV8); settings: protein BABAM1; soluble abundance after heat, U3A cells
[16] = molecular target: proteins of U3A human fibrosarcoma cells (4462 proteins detected) (Homo sapiens, UniProt Q9Y4X5); settings: protein ARIH1; U3A cells
[17] = molecular target: proteins of U3A human fibrosarcoma cells (4462 proteins detected) (Homo sapiens, UniProt Q8NCN4); settings: protein RNF169, U3A cells
[18] = molecular target: proteins of U3A human fibrosarcoma cells (4462 proteins detected) (Homo sapiens, UniProt Q92797); settings: protein SYMPK; soluble abundance after heat, U3A cells
[19] = molecular target: proteins of U3A human fibrosarcoma cells (4462 proteins detected) (Homo sapiens, UniProt Q92688); settings: protein ANP32B, U3A cells
[20] = molecular target: proteins of U3A human fibrosarcoma cells (4462 proteins detected) (Homo sapiens, UniProt Q96K76); settings: protein USP47; U3A cells
[21] = molecular target: proteins of U3A human fibrosarcoma cells (4462 proteins detected) (Homo sapiens, UniProt Q8NFF5); settings: protein FLAD1; U3A cells
[22] = molecular target: proteins of U3A human fibrosarcoma cells (4462 proteins detected) (Homo sapiens, UniProt P01040); settings: protein CSTA, U3A cells
[23] = molecular target: proteins of U3A human fibrosarcoma cells (4462 proteins detected) (Homo sapiens, UniProt P15927); settings: protein RPA2; U3A cells
[24] = molecular target: proteins of U3A human fibrosarcoma cells (4462 proteins detected) (Homo sapiens, UniProt P54802); settings: protein NAGLU, U3A cells
[25] = molecular target: proteins of U3A human fibrosarcoma cells (4462 proteins detected) (Homo sapiens, UniProt P06756); settings: protein ITGAV; soluble abundance after heat, U3A cells
[26] = molecular target: proteins of U3A human fibrosarcoma cells (4462 proteins detected) (Homo sapiens, UniProt Q8IXQ4); settings: protein GPALPP1, U3A cells
[27] = molecular target: proteins of U3A human fibrosarcoma cells (4462 proteins detected) (Homo sapiens, UniProt Q9UK53); settings: protein ING1; U3A, 10 μM, 2 h
[28] = molecular target: proteins of U3A human fibrosarcoma cells (4462 proteins detected) (Homo sapiens, UniProt Q96AT1); settings: protein KIAA1143; U3A, 10 μM, 2 h
[29] = molecular target: proteins of U3A human fibrosarcoma cells (4462 proteins detected) (Homo sapiens, UniProt Q92572); settings: protein AP3S1; U3A cells
[30] = molecular target: proteins of U3A human fibrosarcoma cells (4462 proteins detected) (Homo sapiens, UniProt P00519); settings: protein ABL1; U3A cells

Chain of proteins of U3A human fibrosarcoma cells (4462 proteins detected) (Homo sapiens, UniProt Q8IXQ4) (Q8IXQ4 whole entry): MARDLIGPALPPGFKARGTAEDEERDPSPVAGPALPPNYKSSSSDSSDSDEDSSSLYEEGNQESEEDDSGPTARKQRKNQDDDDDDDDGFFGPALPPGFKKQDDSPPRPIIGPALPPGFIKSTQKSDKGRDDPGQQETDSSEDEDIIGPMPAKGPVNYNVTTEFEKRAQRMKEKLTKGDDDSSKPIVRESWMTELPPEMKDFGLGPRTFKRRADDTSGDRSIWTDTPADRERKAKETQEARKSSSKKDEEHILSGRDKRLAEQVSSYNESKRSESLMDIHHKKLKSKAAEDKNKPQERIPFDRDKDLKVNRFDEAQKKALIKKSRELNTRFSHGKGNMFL
Chain of proteins of U3A human fibrosarcoma cells (4462 proteins detected) (Homo sapiens, UniProt P15927) (P15927 whole entry): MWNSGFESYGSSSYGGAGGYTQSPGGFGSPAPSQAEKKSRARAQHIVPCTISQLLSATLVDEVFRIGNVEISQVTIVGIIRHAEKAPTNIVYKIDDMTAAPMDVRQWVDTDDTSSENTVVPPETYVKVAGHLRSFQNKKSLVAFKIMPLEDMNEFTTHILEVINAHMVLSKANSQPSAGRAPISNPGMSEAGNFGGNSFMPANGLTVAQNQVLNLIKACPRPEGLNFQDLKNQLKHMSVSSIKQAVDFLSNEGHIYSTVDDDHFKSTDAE
Chain of proteins of U3A human fibrosarcoma cells (4462 proteins detected) (Homo sapiens, UniProt Q86V21) (Q86V21 whole entry): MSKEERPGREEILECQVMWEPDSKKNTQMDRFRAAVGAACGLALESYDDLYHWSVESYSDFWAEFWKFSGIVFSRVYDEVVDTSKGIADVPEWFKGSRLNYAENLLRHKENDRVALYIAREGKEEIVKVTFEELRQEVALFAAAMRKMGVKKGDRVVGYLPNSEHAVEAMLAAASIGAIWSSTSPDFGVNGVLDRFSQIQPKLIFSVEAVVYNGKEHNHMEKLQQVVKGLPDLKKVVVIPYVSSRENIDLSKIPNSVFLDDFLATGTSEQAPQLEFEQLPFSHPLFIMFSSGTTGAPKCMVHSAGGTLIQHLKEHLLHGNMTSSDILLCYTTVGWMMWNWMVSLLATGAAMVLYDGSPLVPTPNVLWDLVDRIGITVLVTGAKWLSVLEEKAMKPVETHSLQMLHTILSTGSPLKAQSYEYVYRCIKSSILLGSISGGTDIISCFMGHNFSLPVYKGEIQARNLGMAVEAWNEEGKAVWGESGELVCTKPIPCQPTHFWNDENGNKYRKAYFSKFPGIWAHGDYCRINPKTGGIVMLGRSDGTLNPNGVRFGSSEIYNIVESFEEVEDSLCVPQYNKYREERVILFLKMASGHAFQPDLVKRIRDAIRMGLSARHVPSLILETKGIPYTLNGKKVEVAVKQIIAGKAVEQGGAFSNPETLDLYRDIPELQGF
Chain of proteins of U3A human fibrosarcoma cells (4462 proteins detected) (Homo sapiens, UniProt Q8NFF5) (Q8NFF5 18-587): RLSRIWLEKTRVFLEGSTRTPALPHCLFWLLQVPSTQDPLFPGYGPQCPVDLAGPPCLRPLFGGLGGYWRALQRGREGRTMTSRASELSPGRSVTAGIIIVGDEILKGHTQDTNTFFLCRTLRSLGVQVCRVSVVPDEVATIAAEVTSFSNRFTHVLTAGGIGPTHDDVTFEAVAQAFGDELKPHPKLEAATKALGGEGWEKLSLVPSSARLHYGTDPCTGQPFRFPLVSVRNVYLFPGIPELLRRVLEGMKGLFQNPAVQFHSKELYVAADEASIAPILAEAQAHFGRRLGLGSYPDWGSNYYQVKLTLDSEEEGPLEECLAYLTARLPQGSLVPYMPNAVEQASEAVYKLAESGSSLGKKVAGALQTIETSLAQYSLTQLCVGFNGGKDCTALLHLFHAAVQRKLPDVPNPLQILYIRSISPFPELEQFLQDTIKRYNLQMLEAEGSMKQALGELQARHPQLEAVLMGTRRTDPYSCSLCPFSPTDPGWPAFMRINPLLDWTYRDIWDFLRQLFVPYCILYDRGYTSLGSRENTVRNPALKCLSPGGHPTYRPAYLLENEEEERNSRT
Chain of proteins of U3A human fibrosarcoma cells (4462 proteins detected) (Homo sapiens, UniProt Q96AT1) (Q96AT1 whole entry): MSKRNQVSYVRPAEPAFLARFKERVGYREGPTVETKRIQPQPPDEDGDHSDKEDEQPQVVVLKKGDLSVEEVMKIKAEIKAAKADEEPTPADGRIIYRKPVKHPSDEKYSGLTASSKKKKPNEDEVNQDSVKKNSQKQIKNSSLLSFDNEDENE
Chain of proteins of U3A human fibrosarcoma cells (4462 proteins detected) (Homo sapiens, UniProt Q92797) (Q92797 whole entry): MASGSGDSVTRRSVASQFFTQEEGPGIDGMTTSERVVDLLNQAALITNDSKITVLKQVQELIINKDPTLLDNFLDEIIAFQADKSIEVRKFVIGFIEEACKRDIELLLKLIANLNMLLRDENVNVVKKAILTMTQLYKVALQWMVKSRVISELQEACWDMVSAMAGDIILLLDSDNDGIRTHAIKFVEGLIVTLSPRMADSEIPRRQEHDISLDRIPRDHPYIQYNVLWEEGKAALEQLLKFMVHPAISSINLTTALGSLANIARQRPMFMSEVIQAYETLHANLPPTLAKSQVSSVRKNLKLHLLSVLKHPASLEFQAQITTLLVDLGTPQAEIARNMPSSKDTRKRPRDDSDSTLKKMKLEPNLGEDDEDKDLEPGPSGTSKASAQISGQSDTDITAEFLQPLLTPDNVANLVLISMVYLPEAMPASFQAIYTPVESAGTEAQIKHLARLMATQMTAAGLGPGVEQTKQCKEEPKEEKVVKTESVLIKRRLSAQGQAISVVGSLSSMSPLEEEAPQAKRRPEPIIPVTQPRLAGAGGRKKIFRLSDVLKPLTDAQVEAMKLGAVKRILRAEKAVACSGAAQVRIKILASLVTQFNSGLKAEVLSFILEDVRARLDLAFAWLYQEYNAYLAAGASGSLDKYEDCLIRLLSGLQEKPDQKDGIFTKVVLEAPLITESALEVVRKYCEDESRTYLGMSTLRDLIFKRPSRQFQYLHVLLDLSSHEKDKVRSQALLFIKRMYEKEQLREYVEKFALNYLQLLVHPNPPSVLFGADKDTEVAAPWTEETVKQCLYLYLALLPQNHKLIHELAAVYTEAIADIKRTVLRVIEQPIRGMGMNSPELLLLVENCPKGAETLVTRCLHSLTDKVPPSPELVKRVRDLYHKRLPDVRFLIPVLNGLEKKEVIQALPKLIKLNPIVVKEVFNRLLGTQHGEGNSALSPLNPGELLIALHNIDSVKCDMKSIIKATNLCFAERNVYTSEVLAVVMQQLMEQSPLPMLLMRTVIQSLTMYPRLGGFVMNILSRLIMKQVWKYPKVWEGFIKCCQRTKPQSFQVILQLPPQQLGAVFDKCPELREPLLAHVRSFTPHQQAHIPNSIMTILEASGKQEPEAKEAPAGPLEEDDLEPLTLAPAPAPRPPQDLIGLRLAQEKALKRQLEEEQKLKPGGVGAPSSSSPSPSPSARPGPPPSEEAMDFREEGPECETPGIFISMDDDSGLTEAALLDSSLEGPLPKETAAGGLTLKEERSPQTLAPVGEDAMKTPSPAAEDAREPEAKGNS
Chain of proteins of U3A human fibrosarcoma cells (4462 proteins detected) (Homo sapiens, UniProt P09874) (P09874 whole entry): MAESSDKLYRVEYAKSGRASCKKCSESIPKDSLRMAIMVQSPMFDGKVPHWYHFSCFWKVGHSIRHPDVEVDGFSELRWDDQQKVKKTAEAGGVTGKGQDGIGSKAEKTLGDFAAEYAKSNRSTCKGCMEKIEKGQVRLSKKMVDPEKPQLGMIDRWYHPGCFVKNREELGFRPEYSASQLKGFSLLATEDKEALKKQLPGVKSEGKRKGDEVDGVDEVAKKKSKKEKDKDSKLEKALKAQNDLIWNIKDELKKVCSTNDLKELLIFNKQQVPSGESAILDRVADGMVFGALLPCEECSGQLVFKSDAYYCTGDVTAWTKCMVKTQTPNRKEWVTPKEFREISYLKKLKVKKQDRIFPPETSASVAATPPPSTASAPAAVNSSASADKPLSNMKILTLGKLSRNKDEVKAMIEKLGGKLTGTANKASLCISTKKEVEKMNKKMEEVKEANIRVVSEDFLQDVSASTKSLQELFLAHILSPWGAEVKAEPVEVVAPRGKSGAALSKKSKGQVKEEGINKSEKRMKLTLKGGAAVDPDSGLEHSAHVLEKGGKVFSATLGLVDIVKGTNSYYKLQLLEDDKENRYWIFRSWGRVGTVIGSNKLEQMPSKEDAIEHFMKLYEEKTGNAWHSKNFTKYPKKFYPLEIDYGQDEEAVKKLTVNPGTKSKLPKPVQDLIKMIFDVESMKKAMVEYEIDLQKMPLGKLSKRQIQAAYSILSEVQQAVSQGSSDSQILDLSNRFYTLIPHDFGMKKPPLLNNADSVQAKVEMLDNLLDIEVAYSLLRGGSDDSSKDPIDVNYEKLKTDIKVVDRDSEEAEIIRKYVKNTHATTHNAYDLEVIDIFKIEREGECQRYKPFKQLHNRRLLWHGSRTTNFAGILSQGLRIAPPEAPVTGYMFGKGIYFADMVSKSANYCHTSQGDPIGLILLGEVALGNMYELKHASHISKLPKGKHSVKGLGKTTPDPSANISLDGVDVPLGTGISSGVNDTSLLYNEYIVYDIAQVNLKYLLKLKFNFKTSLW
Chain of proteins of U3A human fibrosarcoma cells (4462 proteins detected) (Homo sapiens, UniProt P54802) (P54802 24-743): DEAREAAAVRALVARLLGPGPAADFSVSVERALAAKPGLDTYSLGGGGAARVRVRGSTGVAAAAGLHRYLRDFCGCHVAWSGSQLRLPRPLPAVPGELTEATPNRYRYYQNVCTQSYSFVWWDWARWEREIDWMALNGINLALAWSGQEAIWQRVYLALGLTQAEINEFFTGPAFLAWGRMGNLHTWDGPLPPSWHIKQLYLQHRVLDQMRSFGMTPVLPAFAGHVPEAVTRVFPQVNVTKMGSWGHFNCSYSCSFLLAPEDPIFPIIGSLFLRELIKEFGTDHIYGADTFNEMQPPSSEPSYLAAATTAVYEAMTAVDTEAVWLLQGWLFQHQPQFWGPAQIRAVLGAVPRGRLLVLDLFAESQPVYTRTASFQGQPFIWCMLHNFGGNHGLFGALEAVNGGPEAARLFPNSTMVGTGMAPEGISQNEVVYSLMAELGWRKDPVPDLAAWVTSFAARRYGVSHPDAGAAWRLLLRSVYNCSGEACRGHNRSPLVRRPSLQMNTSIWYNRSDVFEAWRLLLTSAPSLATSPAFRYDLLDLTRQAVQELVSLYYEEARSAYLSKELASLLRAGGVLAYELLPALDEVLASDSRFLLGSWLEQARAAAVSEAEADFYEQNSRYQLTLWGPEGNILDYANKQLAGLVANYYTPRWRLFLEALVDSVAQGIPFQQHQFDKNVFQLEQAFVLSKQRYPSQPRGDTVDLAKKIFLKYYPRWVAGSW

CCc1nc(N)nc(N)c1-c1ccc(Cl)cc1 [pyrimethamine]
Log2 (PYR/DMSO) [1]: -0.04
Log2 (PYR/DMSO) [2]: 0.16
Log2 (PYR/DMSO) [3]: 0.21
Log2 (PYR/DMSO) [4]: 0.17
Log2 (PYR/DMSO) [5]: 0.14
Log2 (PYR/DMSO) [6]: 0.19
Log2 (PYR/DMSO) [7]: 0.21
Log2 (PYR/DMSO), FAM162A [8]: -0.37
Log2 (PYR/DMSO) [9]: 0.19
Log2 (PYR/DMSO) [10]: -0.04
Log2 (PYR/DMSO) [11]: 0.19
Log2 (PYR/DMSO), PHF14 [12]: -0.15
Log2 (PYR/DMSO), R3HCC1L [13]: -0.20
Log2 (PYR/DMSO) [14]: -0.04
Log2 (PYR/DMSO) [15]: 0.15
Log2 (PYR/DMSO) [16]: 0.16
Log2 (PYR/DMSO) [17]: -0.03
Log2 (PYR/DMSO) [18]: 0.15
Log2 (PYR/DMSO) [19]: -0.03
Log2 (PYR/DMSO) [20]: 0.19
Log2 (PYR/DMSO) [21]: 0.16
Log2 (PYR/DMSO) [22]: -0.04
Log2 (PYR/DMSO) [23]: 0.17
Log2 (PYR/DMSO) [24]: -0.03
Log2 (PYR/DMSO) [25]: 0.14
Log2 (PYR/DMSO) [26]: -0.04
Log2 (PYR/DMSO), ING1 [27]: -0.22
Log2 (PYR/DMSO), KIAA1143 [28]: -0.16
Log2 (PYR/DMSO) [29]: 0.18
Log2 (PYR/DMSO) [30]: 0.17

Source: PMC8800111 (The Journal of Biological Chemistry, 2021)
